# Results published in PubChem BioAssay (NCI).
#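 Protocol summary: plate cells (96-well), add compound at 5 concentrations, incubate 48 h, interpolate endpoints linearly. The concentration for full growth arrest is given as TGI.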
# Columns and labels:
# Test in all cases: NCI tumour cell line growth inhibition, 48 h
# [1] = tested on: 786-0 renal
# [2] = tested on: A498 renal
# [3] = tested on: A549 NSCLC
# [4] = tested on: ACHN renal
# [5] = tested on: BT-549 breast
# [6] = tested on: CAKI-1 renal
# [7] = tested on: CCRF-CEM leukemia
# [8] = tested on: COLO 205 colon
# [9] = tested on: DU-145 prostate
# [10] = tested on: EKVX NSCLC
# [11] = tested on: HCC-2998 colon
# [12] = tested on: HCT-116 colon
# [13] = tested on: HCT-15 colon
# [14] = tested on: HL-60(TB) leukemia
# [15] = tested on: HOP-62 NSCLC
# [16] = tested on: HOP-92 NSCLC
# [17] = tested on: HS 578T breast
# [18] = tested on: HT29 colon
# [19] = tested on: IGROV1 ovarian
# [20] = tested on: K-562 leukemia
# [21] = tested on: KM12 colon
# [22] = tested on: LOX IMVI melanoma
# [23] = tested on: M14 melanoma
# [24] = tested on: MALME-3M melanoma
# [25] = tested on: MCF7 breast
# [26] = tested on: MDA-MB-231 breast
# [27] = tested on: MDA-MB-435
# [28] = tested on: MDA-N
# [29] = tested on: MOLT-4 leukemia
# [30] = tested on: NCI-H226 lung
# [31] = tested on: NCI-H23 lung
# [32] = tested on: NCI-H460 lung
# [33] = tested on: NCI-H522 lung
# [34] = tested on: NCI/ADR-RES ovarian
# [35] = tested on: OVCAR-3 ovarian
# [36] = tested on: OVCAR-4 ovarian
# [37] = tested on: OVCAR-5 ovarian
# [38] = tested on: OVCAR-8 ovarian
# [39] = tested on: PC-3 prostate
# [40] = tested on: RPMI-8226 leukemia
# [41] = tested on: RXF 393 renal
# [42] = tested on: SF-268 CNS
# [43] = tested on: SF-295 CNS
# [44] = tested on: SF-539 CNS
# [45] = tested on: SK-MEL-2 melanoma
# [46] = tested on: SK-MEL-28 melanoma
# [47] = tested on: SK-MEL-5 melanoma
# [48] = tested on: SK-OV-3 ovarian
# [49] = tested on: SN12C renal
# [50] = tested on: SNB-19 CNS
# [51] = tested on: SNB-75 CNS
# [52] = tested on: SR leukemia
# [53] = tested on: SW-620 colon
# [54] = tested on: T-47D breast
# [55] = tested on: TK-10 renal
# [56] = tested on: U251 CNS
# [57] = tested on: UACC-257 melanoma
# [58] = tested on: UACC-62 melanoma
# [59] = tested on: UO-31 renal
smiles,measurement,setting,value
O=C(Nc1sccc1S(=O)(=O)c1ccc(Cl)cc1)c1ccc(Cl)cc1,TGI,[1],> 100 µM
same,TGI,[2],> 100 µM
same,TGI,[3],> 100 µM
same,TGI,[4],> 100 µM
same,TGI,[5],> 100 µM
same,TGI,[6],> 100 µM
same,TGI,[7],> 100 µM
same,TGI,[8],> 100 µM
same,TGI,[9],> 100 µM
same,TGI,[10],> 100 µM
same,TGI,[11],> 100 µM
same,TGI,[12],> 100 µM
same,TGI,[13],> 100 µM
same,TGI,[14],> 100 µM
same,TGI,[15],> 100 µM
same,TGI,[16],> 100 µM
same,TGI,[17],> 100 µM
same,TGI,[18],> 100 µM
same,TGI,[19],> 100 µM
same,TGI,[20],> 100 µM
same,TGI,[21],> 100 µM
same,TGI,[22],> 100 µM
same,TGI,[23],> 100 µM
same,TGI,[24],> 100 µM
same,TGI,[25],> 100 µM
same,TGI,[26],> 100 µM
same,TGI,[27],> 100 µM
same,TGI,[28],> 100 µM
same,TGI,[29],> 100 µM
same,TGI,[30],> 100 µM
same,TGI,[31],> 100 µM
same,TGI,[32],> 100 µM
same,TGI,[33],> 100 µM
same,TGI,[34],> 100 µM
same,TGI,[35],> 100 µM
same,TGI,[36],> 100 µM
same,TGI,[37],> 100 µM
same,TGI,[38],> 100 µM
same,TGI,[39],90.4 µM
same,TGI,[40],> 100 µM
same,TGI,[41],> 100 µM
same,TGI,[42],> 100 µM
same,TGI,[43],> 100 µM
same,TGI,[44],> 100 µM
same,TGI,[45],> 100 µM
same,TGI,[46],> 100 µM
same,TGI,[47],> 100 µM
same,TGI,[48],> 100 µM
same,TGI,[49],> 100 µM
same,TGI,[50],> 100 µM
same,TGI,[51],> 100 µM
same,TGI,[52],> 100 µM
same,TGI,[53],> 100 µM
same,TGI,[54],> 100 µM
same,TGI,[55],> 100 µM
same,TGI,[56],> 100 µM
same,TGI,[57],> 100 µM
same,TGI,[58],> 100 µM
same,TGI,[59],> 100 µM
[N-]=[N+]=NCC1OC(n2cnc3c(N)ncnc32)C2OC12 (stereo not drawn),TGI,[1],> 100 µM
same,TGI,[2],> 100 µM
same,TGI,[3],> 100 µM
same,TGI,[4],> 100 µM
same,TGI,[5],> 100 µM
same,TGI,[6],> 100 µM
same,TGI,[7],> 100 µM
same,TGI,[8],> 100 µM
same,TGI,[9],> 100 µM
same,TGI,[10],> 100 µM
same,TGI,[11],> 100 µM
same,TGI,[12],> 100 µM
same,TGI,[13],> 100 µM
same,TGI,[14],> 100 µM
same,TGI,[15],> 100 µM
same,TGI,[16],> 100 µM
same,TGI,[17],> 100 µM
same,TGI,[18],> 100 µM
same,TGI,[19],> 100 µM
same,TGI,[20],> 100 µM
same,TGI,[21],> 100 µM
same,TGI,[22],> 100 µM
same,TGI,[23],> 100 µM
same,TGI,[24],> 100 µM
same,TGI,[25],> 100 µM
same,TGI,[26],> 100 µM
same,TGI,[27],> 100 µM
same,TGI,[28],> 100 µM
same,TGI,[29],> 100 µM
same,TGI,[30],> 100 µM
same,TGI,[31],> 100 µM
same,TGI,[32],> 100 µM
same,TGI,[33],> 100 µM
same,TGI,[34],> 100 µM
same,TGI,[35],> 100 µM
same,TGI,[36],> 100 µM
same,TGI,[37],> 100 µM
same,TGI,[38],> 100 µM
same,TGI,[39],> 100 µM
same,TGI,[40],> 100 µM
same,TGI,[41],> 100 µM
same,TGI,[42],> 100 µM
same,TGI,[43],> 100 µM
same,TGI,[44],> 100 µM
same,TGI,[45],> 100 µM
same,TGI,[46],> 100 µM
same,TGI,[47],> 100 µM
same,TGI,[48],> 100 µM
same,TGI,[49],> 100 µM
same,TGI,[50],> 100 µM
same,TGI,[51],> 100 µM
same,TGI,[52],> 100 µM
same,TGI,[53],> 100 µM
same,TGI,[54],> 100 µM
same,TGI,[55],> 100 µM
same,TGI,[56],> 100 µM
same,TGI,[57],> 100 µM
same,TGI,[58],> 100 µM
same,TGI,[59],> 100 µM
